In paper PMC4424274, “Evaluation of [^11C]CB184 for imaging and quantification of TSPO overexpression in a rat model of herpes encephalitis” (European Journal of Nuclear Medicine and Molecular Imaging, 2015):

Assays:
[1] = molecular target: T1, TSPO (Rattus norvegicus, UniProt P16257); assay: Ex vivo biodistribution of [^11C]CB184 in control and HSE rats
T1 construct: from tissue; host or cells: Brain regions and peripheral organs of male Wistar rats, measured in vivo by PET and ex vivo by gamma counting
Method: PET scans were performed using a microPET Focus 220 camera (Siemens Medical Solutions Inc., Malvern, PA) on either day 6 or day 7 after inoculation with HSV-1 [18], depending on the severity of clinical symptoms. The rats were anaesthetized with 5 % isoflurane mixed with medical air at a flow rate of […]. After induction, anaesthesia was maintained with 1.5 – 2 % of isoflurane. The anaesthetized rats were positioned in the camera in a supine position with the head in the field of view. The PET tracer [^11C]CB184 was manually injected via the penile vein, and at the same time a dynamic 60-min scan was started. […] For 30 min the animals were kept under anaesthesia on the operation table after injection of the PET tracer into the penile vein, and were then placed in the scanner for a 30-min dynamic scan. A transmission scan was obtained in all rats using a ^57Co point source for attenuation and scatter correction. In the pretreated group, 5 mg/kg unlabelled PK11195 (Sigma-Aldrich, St. Louis, MO) in dimethyl sulphoxide (DMSO) at a concentration of 10 mg/ml was administered via a tail vein 5 min before injection of the PET tracer.
The brain and peripheral organs were excised and dissected, and blood was centrifuged to collect a plasma sample. Tissues were weighed and radioactivity was measured in a gamma counter (LKB Wallac, Turku, Finland). Tracer uptake in each region was corrected for the injected tracer dose and body weight and expressed as standardized uptake value (SUV), which was defined as: radioactivity (MBq/cm^3)/[injected dose (MBq)/body weight (g)].

[2] = molecular target: TSPO; set-up: method as in PMID 25616581; conditions: cited from earlier work
[3] = HSE rats pretreated with 5 mg/kg PK11195, approximately 75 min after injection
[4] = HSE rats, approximately 75 min after injection
[5] = control (PBS) rats pretreated with 5 mg/kg PK11195, approximately 75 min after injection
[6] = control rats, approximately 75 min after injection

CCCN(CCC)C(=O)Cc1c(-c2ccc(O[11CH3])cc2)nc2c(Cl)cc(Cl)cn12 [[^11C]CB184]
SUV ex vivo, Adrenals [1, 3]: 8.14 ± 7.09 SUV | SUV ex vivo, Bone [1, 3]: 0.39 ± 0.24 SUV | SUV ex vivo, Colon [1, 3]: 0.49 ± 0.36 SUV | SUV ex vivo, Fat [1, 3]: 0.72 ± 0.49 SUV | SUV ex vivo, Heart [1, 3]: 0.77 ± 0.53 SUV | SUV ex vivo, Hippocampus [1, 3]: 0.09 ± 0.05 SUV | SUV ex vivo, Ileum [1, 3]: 2.74 ± 1.77 SUV | SUV ex vivo, Kidney [1, 3]: 1.12 ± 0.75 SUV | SUV ex vivo, Liver [1, 3]: 10.71 ± 9.25 SUV | SUV ex vivo, Lung [1, 3]: 1.62 ± 0.98 SUV | SUV ex vivo, Medulla [1, 3]: 0.13 ± 0.06 SUV | SUV ex vivo, Pancreas [1, 3]: 0.62 ± 0.37 SUV | SUV ex vivo, Parietal/temporal/occipital cortex [1, 3]: 0.10 ± 0.05 SUV | SUV ex vivo, Plasma [1, 3]: 0.19 ± 0.04 SUV | SUV ex vivo, Pons [1, 3]: 0.12 ± 0.10 SUV | SUV ex vivo, Red blood cells [1, 3]: 0.11 ± 0.07 SUV | SUV ex vivo, Spleen [1, 3]: 0.71 ± 0.55 SUV | SUV ex vivo, Stomach [1, 3]: 0.82 ± 0.60 SUV | SUV ex vivo, Striatum [1, 3]: 0.09 ± 0.06 SUV | SUV ex vivo, Submandibularis [1, 3]: 0.79 ± 0.56 SUV | SUV ex vivo, Testis [1, 3]: 0.29 ± 0.21 SUV | SUV ex vivo, Thymus [1, 3]: 0.74 ± 0.46 SUV | SUV ex vivo, Whole brain [1, 3]: 0.08 ± 0.08 SUV | SUV ex vivo, Adrenals [1, 4]: 13.86 ± 4.42 SUV | SUV ex vivo, Amygdala/piriform cortex [1, 4]: 0.52 ± 0.21 SUV | SUV ex vivo, Bone [1, 4]: 0.98 ± 0.14 SUV | SUV ex vivo, Colon [1, 4]: 3.29 ± 0.81 SUV | SUV ex vivo, Fat [1, 4]: 0.57 ± 0.39 SUV | SUV ex vivo, Heart [1, 4]: 23.69 ± 2.71 SUV | SUV ex vivo, Hippocampus [1, 4]: 0.55 ± 0.21 SUV | SUV ex vivo, Ileum [1, 4]: 6.20 ± 2.67 SUV | SUV ex vivo, Kidney [1, 4]: 13.17 ± 2.25 SUV | SUV ex vivo, Liver [1, 4]: 7.97 ± 1.73 SUV | SUV ex vivo, Lung [1, 4]: 22.53 ± 2.41 SUV | SUV ex vivo, Medulla [1, 4]: 1.51 ± 0.57 SUV | SUV ex vivo, Olfactory bulb [1, 4]: 1.52 ± 0.22 SUV | SUV ex vivo, Pancreas [1, 4]: 4.23 ± 0.76 SUV | SUV ex vivo, Parietal/temporal/occipital cortex [1, 4]: 0.41 ± 0.14 SUV | SUV ex vivo, Plasma [1, 4]: 0.28 ± 0.24 SUV | SUV ex vivo, Pons [1, 4]: 1.26 ± 0.52 SUV | SUV ex vivo, Red blood cells [1, 4]: 0.13 ± 0.01 SUV | SUV ex vivo, Spleen [1, 4]: 11.76 ± 1.42 SUV | SUV ex vivo, Stomach [1, 4]: 5.88 ± 1.87 SUV | SUV ex vivo, Striatum [1, 4]: 0.45 ± 0.15 SUV | SUV ex vivo, Submandibularis [1, 4]: 4.89 ± 0.75 SUV | SUV ex vivo, Testis [1, 4]: 0.88 ± 0.12 SUV | SUV ex vivo, Thymus [1, 4]: 3.23 ± 0.33 SUV | SUV ex vivo, Whole brain [1, 4]: 0.99 ± 0.21 SUV | SUV ex vivo, Adrenals [1, 5]: 7.72 ± 5.20 SUV | SUV ex vivo, Bone [1, 5]: 0.31 ± 0.19 SUV | SUV ex vivo, Colon [1, 5]: 0.42 ± 0.24 SUV | SUV ex vivo, Fat [1, 5]: 0.48 ± 0.18 SUV | SUV ex vivo, Heart [1, 5]: 0.68 ± 0.40 SUV | SUV ex vivo, Hippocampus [1, 5]: 0.12 ± 0.08 SUV | SUV ex vivo, Ileum [1, 5]: 2.31 ± 1.15 SUV | SUV ex vivo, Kidney [1, 5]: 0.72 ± 0.44 SUV | SUV ex vivo, Liver [1, 5]: 11.28 ± 5.43 SUV | SUV ex vivo, Lung [1, 5]: 0.95 ± 0.57 SUV | SUV ex vivo, Medulla [1, 5]: 0.12 ± 0.07 SUV | SUV ex vivo, Pancreas [1, 5]: 0.57 ± 0.34 SUV | SUV ex vivo, Parietal/temporal/occipital cortex [1, 5]: 0.10 ± 0.06 SUV | SUV ex vivo, Plasma [1, 5]: 0.27 ± 0.15 SUV | SUV ex vivo, Pons [1, 5]: 0.12 ± 0.08 SUV | SUV ex vivo, Red blood cells [1, 5]: 0.11 ± 0.05 SUV | SUV ex vivo, Spleen [1, 5]: 0.70 ± 0.47 SUV | SUV ex vivo, Stomach [1, 5]: 0.70 ± 0.46 SUV | SUV ex vivo, Striatum [1, 5]: 0.11 ± 0.07 SUV | SUV ex vivo, Submandibularis [1, 5]: 0.70 ± 0.46 SUV | SUV ex vivo, Testis [1, 5]: 0.30 ± 0.24 SUV | SUV ex vivo, Thymus [1, 5]: 0.72 ± 0.44 SUV | SUV ex vivo, Whole brain [1, 5]: 0.15 ± 0.08 SUV | SUV ex vivo, Adrenals [1, 6]: 14.84 ± 5.45 SUV | SUV ex vivo, Bone [1, 6]: 1.00 ± 0.26 SUV | SUV ex vivo, Colon [1, 6]: 3.38 ± 0.97 SUV | SUV ex vivo, Fat [1, 6]: 0.43 ± 0.21 SUV | SUV ex vivo, Heart [1, 6]: 22.81 ± 2.80 SUV | SUV ex vivo, Hippocampus [1, 6]: 0.39 ± 0.18 SUV | SUV ex vivo, Ileum [1, 6]: 6.41 ± 3.07 SUV | SUV ex vivo, Kidney [1, 6]: 12.52 ± 2.22 SUV | SUV ex vivo, Liver [1, 6]: 7.57 ± 1.64 SUV | SUV ex vivo, Lung [1, 6]: 18.39 ± 2.20 SUV | SUV ex vivo, Medulla [1, 6]: 0.59 ± 0.14 SUV | SUV ex vivo, Pancreas [1, 6]: 3.55 ± 0.52 SUV | SUV ex vivo, Parietal/temporal/occipital cortex [1, 6]: 0.32 ± 0.06 SUV | SUV ex vivo, Plasma [1, 6]: 0.18 ± 0.08 SUV | SUV ex vivo, Pons [1, 6]: 0.63 ± 0.08 SUV | SUV ex vivo, Red blood cells [1, 6]: 0.19 ± 0.18 SUV | SUV ex vivo, Spleen [1, 6]: 13.23 ± 2.64 SUV | SUV ex vivo, Stomach [1, 6]: 5.04 ± 0.82 SUV | SUV ex vivo, Striatum [1, 6]: 0.28 ± 0.07 SUV | SUV ex vivo, Submandibularis [1, 6]: 4.28 ± 1.02 SUV | SUV ex vivo, Testis [1, 6]: 0.98 ± 0.11 SUV | SUV ex vivo, Thymus [1, 6]: 3.36 ± 0.58 SUV | SUV ex vivo, Whole brain [1, 6]: 0.66 ± 0.16 SUV | SUV ex vivo, adrenal glands (mean ± SD) ([1]; pretreated with unlabelled PK11195, control and HSE groups together): 7.93 ± 5.87 SUV | Ki ([2]; read-out: K i (TSPO affinity)): 0.54 nM | TSPO affinity relative to (R)-[^11C]PK11195 ([2]; times higher affinity, ratio of K i values): 7.9 times
